Values quoted from earlier work as cited in US11318114B2, “Water dispersible mini-tablets comprising Enalapril for treatment of hypertension in a pediatric population and method of preparation thereof” (PHARMATHEN S.A., priority 2014, dated 2022).
≈ marks a conversion by molar mass, not a printed value. Structures can show the parent of a compound that is named as a salt. Where two headings read alike, the source gives them in different places.

Solubility (alcohol)	Solubility (dimethylformamide)	Solubility (methanol)	Solubility (nonpolar organic solvents)	Solubility (semi polar organic solvents)	Solubility (water)	Solubility in water (water)	Structure (SMILES)
soluble	freely soluble	freely soluble	practically insoluble	slightly soluble	sparingly soluble		CCOC(=O)[C@H](CCc1ccccc1)N[C@@H](C)C(=O)N1CCC[C@H]1C(=O)O [Enalapril maleate]
						25 mg/mL (≈ 66.4 mM)	CCOC(=O)[C@H](CCc1ccccc1)N[C@@H](C)C(=O)N1CCC[C@H]1C(=O)O [Enalapril, (2S)-1-{[92S0-1-ethoxy-1-oxo-4phenylbutan-2-yl]amino}pyrrolidine-2carboxylic acid]
